Measured values from ChEMBL document CHEMBL1147499, “Chain-branched 1,3-dibenzylthioureas as vanilloid receptor 1 antagonists” (Bioorg Med Chem Lett, 2004).

Legend:
Rattus norvegicus [1] = species on record: Rattus norvegicus; test: Effective concentration of compound to induce 45 [Ca2+] influx in neonatal rat cultured spinal sensory neurons; type: functional
Rattus norvegicus [2] = species on record: Rattus norvegicus; test: Inhibitory concentration of compound against 45 [Ca2+] influx in neonatal rat cultured spinal sensory neurons; type: functional

EC50 (Rattus norvegicus [1]) | IC50 (Rattus norvegicus [2]) | Structure (SMILES)
> 100 µM | – | CC(C)(C)c1ccc(CNC(=S)NCc2ccc(NS(C)(=O)=O)cc2)cc1
> 100 µM | 0.15 µM | CC(/N=C(\S)NCc1ccc(C(C)(C)C)cc1)c1ccc(NS(C)(=O)=O)cc1 (centres undefined)
> 100 µM | 0.36 µM | CCC(/N=C(\S)NCc1ccc(C(C)(C)C)cc1)c1ccc(NS(C)(=O)=O)cc1 (centres undefined)
> 100 µM | 0.05 µM | C[C@@H](NC(=S)NCc1ccc(C(C)(C)C)cc1)c1ccc(NS(C)(=O)=O)cc1
> 100 µM | 0.58 µM | C[C@@H](/N=C(\S)NCc1ccc(C(C)(C)C)cc1)c1ccc([N+](=O)[O-])cc1
> 100 µM | 1.47 µM | C[C@H](/N=C(\S)NCc1ccc(C(C)(C)C)cc1)c1ccc(NS(C)(=O)=O)cc1
> 100 µM | 3.24 µM | CC(C)C(/N=C(\S)NCc1ccc(C(C)(C)C)cc1)c1ccc(NS(C)(=O)=O)cc1 (centres undefined)
> 100 µM | 1.49 µM | CCCC(/N=C(\S)NCc1ccc(C(C)(C)C)cc1)c1ccc(NS(C)(=O)=O)cc1 (centres undefined)
> 100 µM | 3.3 µM | C[C@@H](/N=C(\S)NCc1ccc(C(C)(C)C)cc1)c1ccc(N)cc1
> 100 µM | 0.4 µM | Cc1ccc(C(C)/N=C(\S)NCc2ccc(C(C)(C)C)cc2)cc1 (centres undefined)
> 100 µM | 4.96 µM | C[C@@H](/N=C(\S)NCc1ccc(C(C)(C)C)cc1)c1ccccc1
> 100 µM | 3.49 µM | C[C@@H](/N=C(\S)NCc1ccc(C(C)(C)C)cc1)c1ccc(C(C)(C)C)cc1
> 100 µM | 25.5 µM | C[C@H](/N=C(\S)NCc1ccc(C(C)(C)C)cc1)c1ccccc1
> 100 µM | 3.6 µM | CC(=O)Nc1ccc([C@@H](C)/N=C(\S)NCc2ccc(C(C)(C)C)cc2)cc1
> 100 µM | 14.7 µM | C[C@H](/N=C(\S)NCc1ccc(C(C)(C)C)cc1)c1ccc([N+](=O)[O-])cc1
> 100 µM | 16.7 µM | CC(C)(C)c1ccc(C/N=C(\S)NC(c2ccccc2)c2ccc(NS(C)(=O)=O)cc2)cc1 (centres undefined)
> 100 µM | 0.05 µM | CC[C@@H](/N=C(\S)NCc1ccc(C(C)(C)C)cc1)c1ccc(NS(C)(=O)=O)cc1
> 100 µM | – | Oc1cc2c(cc1O)CN(C(=S)NCCc1ccc(Cl)cc1)CCC2 [CAPSAZEPINE]
